Assay [1] has as its system panel of different propionibacterium strains. Nature of the assay: MIC by agar dilution and (S)DDA, whole panel. It is filed as cell-based, Propionibacterium spp. Conditions: compound alone; also under supplemented conditions.
Experimental: For (S)DDA experiments 200 μg of each test compound was added per disc. […] MIC experiments were performed in duplicate, DDA experiments as single replicates only. SDDA experiments were conducted in triplicate.
The activity of the salt (MIC by agar dilution and DDA) was also determined against a panel of different propionibacterium strains. Supplemented DDA experiments were also carried out. […] DMSO was used as the diluting solvent. MIC experiments were performed in duplicate and DDA experiments as single replicates only.
The subject of assay [2] is Staphylococcus haemolyticus ATCC 29970. Conditions: triplicate.
Experimental: (§6) The staphylococci were cultured and maintained on Mueller-Hinton Medium (agar and broth) at pH 7.2; cultures were incubated aerobically at 37° C. for 19-20 hours.
This is a standard international method for quantitatively assessing the antimicrobial activity of a compound in a liquid medium. The method used a sterile 96-well microtitre plate, capable of holding about 200 μl of liquid per well. […] The culture media were as described above.
The wells were inoculated with a liquid suspension of freshly grown micro-organism and incubated under the conditions described above. After incubation, the microtitre plate was examined visually (with the aid of a light box) for cloudiness in each well, which would indicate microbial growth. The MIC value was recorded as the lowest concentration of test compound required to inhibit microbial growth, ie, the lowest concentration for which the liquid in the well remained clear.
For assay [3], the system named is panel of different staphylococcal strains. Conditions: compound alone; also under supplemented conditions.
Experimental: The activity of the salt was also determined against a panel of different staphylococcal strains, including some with known antibiotic resistance. MIC, MBC and DDA assays were carried out as described above for each of the strains, including determining the effect of the presence of salt and serum.
For DDA experiments 200 μg of the test compound was added per disc. DMSO was used as the diluting solvent. All experiments were performed in triplicate.
The test system of assay [4] is P. acnes NCTC 737. Nature of the assay: Minimum inhibitory concentration (MIC) assay. The class given is cell-based, Propionibacterium acnes. Conditions: P. acnes NCTC 737. An excerpt:
(§1) (a) Minimum Inhibitory Concentration (MIC) Assay
(§2) The culture media were as described above.
(§3) The assays included both negative (culture medium with no micro-organisms) and positive (culture medium plus diluting solvent plus micro-organism) controls.

Assay [5] deals with P. acnes NCTC 737. Nature of the assay: Minimum bactericidal concentration (MBC) assay. The class given is cell-based, Propionibacterium acnes. Conditions: P. acnes NCTC 737. As to the method:
(§4) (b) Minimum Bactericidal Concentration (MBC) Assay
(§5) Following incubation they were examined visually for bacterial growth.

The test system of assay [6] is S. aureus ATCC 29213. Put plainly: Minimum inhibitory concentration (MIC) assay. It is filed as cell-based, Staphylococcus aureus. Conditions: S. aureus ATCC 29213.
From the text: as §1, §2, §3

Assay [7] relates to S. aureus ATCC 29213. Nature of the assay: Minimum bactericidal concentration (MBC) assay. It is filed as cell-based, Staphylococcus aureus. Conditions: S. aureus ATCC 29213. The procedure:
as §4, §5

In another assay the test system is P. granulosum NCTC 11865. Put plainly: Disc diffusion assay (DDA), also supplemented. It is filed as cell-based. Conditions: Table 12 series, 200 μg per disc.
The subject of the next assay is P. acnes PRP-002. Put plainly: Disc diffusion assay (DDA), also supplemented. The class given is cell-based, Propionibacterium acnes. Conditions: Table 12 series, 200 μg per disc. For orientation: In agar diffusion tests the substance spreads into inoculated agar from a disc or well.
The next assay concerns P. acnes PRP-003. Put plainly: Disc diffusion assay (DDA), also supplemented. It is filed as cell-based, Propionibacterium acnes. Conditions: Table 12 series, 200 μg per disc.
In the next assay the test system is P. acnes PRP-004. Put plainly: Disc diffusion assay (DDA), also supplemented. It is filed as cell-based, Propionibacterium acnes. Conditions: Table 12 series, 200 μg per disc.
A further assay deals with P. granulosum PRP-005. Nature of the assay: Disc diffusion assay (DDA), also supplemented. It is filed as cell-based. Conditions: Table 12 series, 200 μg per disc.
For another assay, the system named is P. granulosum PRP-006. Nature of the assay: Disc diffusion assay (DDA), also supplemented. It is filed as cell-based. Conditions: Table 12 series, 200 μg per disc.
The test system of a further assay is P. acnes PRP-007. Put plainly: Disc diffusion assay (DDA), also supplemented. The class given is cell-based, Propionibacterium acnes. Conditions: Table 12 series, 200 μg per disc.
In the next assay the test system is P. acnes PRP-008. Nature of the assay: Disc diffusion assay (DDA), also supplemented. Conditions: Table 12 series, 200 μg per disc. It is filed as cell-based, Propionibacterium acnes.
For another assay, the system named is P. acnes PRP-010. Nature of the assay: Disc diffusion assay (DDA), also supplemented. Conditions: Table 12 series, 200 μg per disc. It is filed as cell-based, Propionibacterium acnes.
The subject of a further assay is P. acnes PRP-017. Put plainly: Disc diffusion assay (DDA), also supplemented. Conditions: Table 12 series, 200 μg per disc. It is filed as cell-based, Propionibacterium acnes.
The subject of a further assay is P. granulosum PRP-019. Nature of the assay: Disc diffusion assay (DDA), also supplemented. The class given is cell-based. Conditions: Table 12 series, 200 μg per disc.
A further assay relates to P. granulosum PRP-021. Nature of the assay: Disc diffusion assay (DDA), also supplemented. The class given is cell-based. Conditions: Table 12 series, 200 μg per disc.
A further assay has as its system P. acnes PRP-023. Put plainly: Disc diffusion assay (DDA), also supplemented. It is filed as cell-based, Propionibacterium acnes. Conditions: Table 12 series, 200 μg per disc.
A further assay has as its system P. acnes PRP-026. Nature of the assay: Disc diffusion assay (DDA), also supplemented. It is filed as cell-based, Propionibacterium acnes. Conditions: Table 12 series, 200 μg per disc.
In another assay the test system is P. acnes PRP-039. Put plainly: Disc diffusion assay (DDA), also supplemented. It is filed as cell-based, Propionibacterium acnes. Conditions: Table 12 series, 200 μg per disc.
The next assay deals with P. granulosum PRP-043. Put plainly: Disc diffusion assay (DDA), also supplemented. The class given is cell-based. Conditions: Table 12 series, 200 μg per disc.
Another assay relates to P. granulosum PRP-044. Nature of the assay: Disc diffusion assay (DDA), also supplemented. Conditions: Table 12 series, 200 μg per disc. The class given is cell-based.
For another assay, the system named is P. acnes PRP-046. Put plainly: Disc diffusion assay (DDA), also supplemented. It is filed as cell-based, Propionibacterium acnes. Conditions: Table 12 series, 200 μg per disc.
The subject of a further assay is P. acnes PRP-053. Put plainly: Disc diffusion assay (DDA), also supplemented. The class given is cell-based, Propionibacterium acnes. Conditions: Table 12 series, 200 μg per disc.
The next assay concerns P. granulosum PRP-055. Nature of the assay: Disc diffusion assay (DDA), also supplemented. The class given is cell-based. Conditions: Table 12 series, 200 μg per disc.
In a further assay the test system is P. acnes PRP-059. Put plainly: Disc diffusion assay (DDA), also supplemented. It is filed as cell-based, Propionibacterium acnes. Conditions: Table 12 series, 200 μg per disc.
The next assay has as its system P. acnes PRP-068. Nature of the assay: Disc diffusion assay (DDA), also supplemented. It is filed as cell-based, Propionibacterium acnes. Conditions: Table 12 series, 200 μg per disc.
Another assay has as its system P. acnes PRP-101. Put plainly: Disc diffusion assay (DDA), also supplemented. It is filed as cell-based, Propionibacterium acnes. Conditions: Table 12 series, 200 μg per disc.
Another assay deals with P. acnes PRP-102. Nature of the assay: Disc diffusion assay (DDA), also supplemented. Conditions: Table 12 series, 200 μg per disc. It is filed as cell-based, Propionibacterium acnes.
The test system of assay [8] is P. acnes NCTC 737. Put plainly: Disc diffusion assay (DDA), also supplemented.
The subject of assay [9] is S. aureus ATCC 29213. Nature of the assay: Disc diffusion assay (DDA), also supplemented.
Experimental: as §6
(d) Disc Diffusion Assay (DDA)
(§7) A sterile paper disc was impregnated with a sample of the test compound in a suitable solvent and 30 minutes allowed for the solvents to evaporate (where possible). The disc was then placed on an agar plate onto which the test micro-organism had been inoculated. The plate was then incubated under the conditions described above, following which it was examined visually for signs of bacterial growth. […] The diameter of this zone of “inhibition” was measured using a ProtoCOL™ automated zone sizer (Synbiosis, Cambridge, UK).
(f) Supplemented Disc Diffusion Assays
(§8) For assays using S. aureus ATCC 29213 the supplements used were sodium chloride (100 mM), lipid (Tween™ 80 at 1% v/v) and horse serum (5% v/v).
For assay [10], the system named is P. acnes NCTC 737. Put plainly: Synergy disc diffusion assay (SDDA), also supplemented.
Assay [11] relates to S. aureus ATCC 29213. The description is as above.
Experimental: (e) Synergy Disc Diffusion Assay (SDDA)
This is a variation on the DDA method, in which two compounds are tested together for their combined antimicrobial activity.
Two test compounds A and B were placed on a single paper disc and the above described DDA procedure repeated.
(f) Supplemented Disc Diffusion Assays
as §8
[12] abbreviates: zone of inhibition diameter, single compound, 200 μg per disc, unsupplemented.
[13] abbreviates: copper salt alone, 200 μg per disc (silicate 62 μg), sodium chloride (100 mM).
Setting [14] is: copper salt + TBHQ on one disc, 200 μg of each (silicate 62 μg), unsupplemented.
Where [15] appears, read: copper salt + TBHQ vs larger zone of either compound alone, unsupplemented.
Setting [16] is: copper salt + TBHQ, salt and lipid (1% (v/v) Tween 80).
Where [17] appears, read: copper salt + TBHQ, unsupplemented.
The mark [18] stands for this setting: copper salt + TBHQ, salt and serum supplements.

≈ marks a conversion by molar mass, not a printed value. Where two headings read alike, the source gives them in different places. A value given as a limit tells only on which side of the number the result lay.
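Wherever DDA + salt & lipid is given: paper disc carrying compound placed on inoculated Wilkins-Chalgren Anaerobe agar pH 6.0, with lipid or NaCl supplement where listed, anaerobic 37 °C for 72 h, inhibition zone diameter read.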
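Wherever SL (S)DDA is given: paper disc carrying compound placed on inoculated Wilkins-Chalgren Anaerobe agar pH 6.0, with lipid or NaCl supplement where listed, anaerobic 37 °C for 72 h, inhibition zone diameter read.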
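Wherever SS SDDA area increase is given: disc diffusion on Mueller-Hinton agar at pH 7.2, aerobic incubation at 37 °C lasting 19-20 h, two compounds assessed jointly for combined antimicrobial effect.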
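Wherever SS SDDA increase is given: disc diffusion on Mueller-Hinton agar at pH 7.2, aerobic incubation at 37 °C lasting 19-20 h, two compounds assessed jointly for combined antimicrobial effect.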
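Wherever SS SDDA with TBHQ is given: disc diffusion on Mueller-Hinton agar at pH 7.2, aerobic incubation at 37 °C lasting 19-20 h, two compounds assessed jointly for combined antimicrobial effect.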

Experimental for P. acnes PRP-002: (§9) The propionibacteria were cultured and maintained on Wilkins-Chalgren Anaerobe Medium (agar and broth) at pH 6.0; all cultures were incubated anaerobically at 37° C. for 72 hours.
as §7
(§10) For assays using Propionibacterium spp. strains the supplements used in the examples below were lipid (either Tween™ 80 or triolein, both at 1% v/v) and sodium chloride (100 mM).
Experimental for P. acnes PRP-003: as §9, §7, §10
Experimental for P. acnes PRP-004: as §9, §7, §10
Experimental for P. acnes PRP-007: as §9, §7, §10
Experimental for P. acnes PRP-008: as §9, §7, §10
Experimental for P. acnes PRP-010: as §9, §7, §10
Experimental for P. acnes PRP-023: as §9, §7, §10
Experimental for P. acnes PRP-026: as §9, §7, §10
Experimental for P. acnes PRP-053: as §9, §7, §10
Experimental for P. acnes PRP-059: as §9, §7, §10
Experimental for P. acnes PRP-068: as §9, §7, §10
Experimental for P. acnes PRP-101: as §9, §7, §10
Experimental for P. acnes PRP-102: as §9, §7, §10
Experimental for P. granulosum NCTC 11865: as §9, §7, §10
Experimental for P. granulosum PRP-005: as §9, §7, §10
Experimental for P. granulosum PRP-006: as §9, §7, §10
Experimental for P. granulosum PRP-019: as §9, §7, §10
Experimental for P. granulosum PRP-021: as §9, §7, §10
Experimental for P. granulosum PRP-043: as §9, §7, §10
Experimental for P. granulosum PRP-044: as §9, §7, §10
Experimental for P. granulosum PRP-055: as §9, §7, §10

In the case of `Oc1cccc2cccnc12.[Cu+2]` [8-hydroxyquinoline copper (II) salt], the “activity against propionibacterium strains tested (in words)” value in [1] is “high activity”. Also, in assay [2], the “Cu-8HQ MIC” value turned out to be 7.8 µg/mL. The “activity against staphylococcal strains (in words)” value in assay [3] is “high activity”.

Usually MIC stands for the lowest concentration found to suppress growth. By MBC is commonly meant the lowest tested concentration that kills the bacteria rather than only halting them. For `CC(C)(C)c1cc(O)ccc1O` [TBHQ, t-butylhydroquinone], the MIC in the assay on P. acnes NCTC 737 [4] (Cutibacterium acnes, NCTC737, liquid medium, duplicate, read-out: MIC) stood at 7.8 µg/mL (≈ 46.9 µM). Moreover, the MIC/MBC ratio in the assay with P. acnes NCTC 737 [4] stood at 1; with S. aureus ATCC 29213 [6], 0.5. The MBC with P. acnes NCTC 737 [5] (Cutibacterium acnes, NCTC737, duplicate, read-out: MBC) came out at 7.8 µg/mL (≈ 46.9 µM); with S. aureus ATCC 29213 [7] (Staphylococcus aureus, ATCC29213, duplicate, read-out: MBC), 7.8 µg/mL (≈ 46.9 µM). Further, the DDA in the assay on P. granulosum NCTC 11865 was 10.45 mm; with P. acnes PRP-002, 10.56 mm; in the assay with P. acnes PRP-003, 18.61 mm; in the assay with P. acnes PRP-004, 13.80 mm; in the assay with P. granulosum PRP-005 it was 15.05 mm; in the assay on P. granulosum PRP-006, 9.93 mm. For the same compound, the DDA was determined as 8.78 mm with P. acnes PRP-007; 13.90 mm with P. acnes PRP-008; 8.68 mm with P. acnes PRP-010; 9.93 mm in the assay on P. acnes PRP-017; 0.00 mm with P. granulosum PRP-019; 8.57 mm with P. granulosum PRP-021. Also, the DDA is recorded as 11.92 mm with P. acnes PRP-023; 11.29 mm with P. acnes PRP-026; 17.04 mm in the assay with P. acnes PRP-039; 10.77 mm with P. granulosum PRP-043; 0.00 mm in the assay with P. granulosum PRP-044; 14.22 mm with P. acnes PRP-046. Further, the DDA in the assay on P. acnes PRP-053 turned out to be 9.93 mm; in the assay on P. granulosum PRP-055, 10.04 mm; in the assay on P. acnes PRP-059, 10.87 mm; with P. acnes PRP-068, 12.55 mm; with P. acnes PRP-101 it was 14.01 mm; with P. acnes PRP-102 it was 9.10 mm. In addition, the “SL (S)DDA” value with P. acnes NCTC 737 [8] (single compound, 200 μg per disc, salt and lipid (1% (v/v) Tween 80) supplements) stood at 0.0 mm. In addition, the “(S)DDA” value in the assay with P. acnes NCTC 737 [8] (setting [12]) is reported as 12.20 (±1.13) mm; in the assay with S. aureus ATCC 29213 [9] (setting [12]), 40.42 (±0.89) mm. Moreover, in the assay on S. aureus ATCC 29213 [9] (single compound, 200 μg per disc, salt and serum supplements), the “SS (S)DDA” value is given as 43.68 (±1.02) mm.

Copper (II)-D-gluconate: the values for the MIC in the assay with P. acnes NCTC 737 [4] (copper salt alone) and with S. aureus ATCC 29213 [6] (copper salt alone) were 62.5 µg/mL and more than 250 µg/mL, respectively. Besides, in the assay on P. acnes NCTC 737 [4] (copper salt alone), the MIC/MBC ratio is 0.5. In addition, the MBC with P. acnes NCTC 737 [5] (copper salt alone) is 125 µg/mL; with S. aureus ATCC 29213 [7] (copper salt alone), more than 250 µg/mL. The DDA is 45.37 mm with P. acnes NCTC 737 [8] and 0 mm with S. aureus ATCC 29213 [9]. The “DDA + lipid” value with P. acnes NCTC 737 [8] (copper salt alone, 200 μg per disc (silicate 62 μg), 1% (v/v) Tween 80) was determined as 27.36 mm; with S. aureus ATCC 29213 [9] (copper salt alone, 200 μg per disc (silicate 62 μg), Tween 80 at 1% v/v), 0 mm. Moreover, the “DDA + salt & lipid” value in the assay with P. acnes NCTC 737 [8] (copper salt alone, 200 μg per disc (silicate 62 μg), salt and 1% (v/v) Tween 80) worked out at 47.04 mm. Besides, the figures for the “DDA + salt” value in the assay with P. acnes NCTC 737 [8] (setting [13]) and in the assay with S. aureus ATCC 29213 [9] (setting [13]) were 37.93 mm and 0 mm, respectively. The “DDA + salt & serum” value in the assay with S. aureus ATCC 29213 [9] (copper salt alone, 200 μg per disc (silicate 62 μg), salt and horse serum (5% v/v)) is 0 mm. Also, in the assay with P. acnes NCTC 737 [10] (copper salt + TBHQ on one disc, 200 μg of each (silicate 62 μg), salt and lipid (1% (v/v) Tween 80)), the “SL SDDA with TBHQ” value is 53.19 mm. Also, the entries for the “SDDA with TBHQ” value in the assay on P. acnes NCTC 737 [10] (setting [14]) and in the assay with S. aureus ATCC 29213 [11] (setting [14]) were 53.5 mm and 68.32 mm, respectively. Moreover, the SDDA increase in the assay on P. acnes NCTC 737 [10] (setting [15]) is recorded as 8.13 mm; in the assay on S. aureus ATCC 29213 [11] (setting [15]), 27.90 mm. Also, in the assay on P. acnes NCTC 737 [10] (setting [16]), the “SL SDDA area increase” value was determined as 27.88%. For the same compound, in the assay with P. acnes NCTC 737 [10] (setting [16]), the “SL SDDA increase” value worked out at 6.15 mm. The SDDA area increase with P. acnes NCTC 737 [10] (setting [17]) was found to be 39.05%; in the assay on S. aureus ATCC 29213 [11] (setting [17]), 185.69%. Further, the “SS SDDA with TBHQ” value with S. aureus ATCC 29213 [11] (copper salt + TBHQ on one disc, 200 μg of each (silicate 62 μg), salt and serum supplements) was determined as 53.37 mm. Moreover, the “SS SDDA area increase” value in the assay on S. aureus ATCC 29213 [11] (setting [18]) is given as 49.29%. In addition, the “SS SDDA increase” value with S. aureus ATCC 29213 [11] (setting [18]) worked out at 9.69 mm.

(Values after patent US20090246292A1, “ANTIMICROBIAL FORMULATIONS COMPRISING A QUINONE AND A COPPER SALT” (priority 2006, published 2009).)
